Measurements reported in patent publication US12251370B2, “Small molecule inhibitors of the BfrB:Bfd interaction” (BOARD OF SUPERVISORS OF LOUISIANA STATE UNIVERSITY AND …, priority 2018, dated 2025).
Entries after “also recorded” stand apart in the source; their conditions may differ.

Tests used:
[1] = tested on: A. baumannii; experiment: Growth curves and IC50 determination in A. baumannii; assay type: cell-based, Acinetobacter baumannii (AB5075); details: Acinetobacter baumannii; AB5075; modified M63 media; 48 well-plates
Experimental: Pre-cultures (5 mL LB media) were grown for 12 h at 37° C. and 220 rpm in 50 mL conical tubes (VWR International, PA) covered with an air permeable membrane. The cells were then centrifuged at 4,000 rpm for 10 min, the resultant cell pellets washed twice in M63 media and then diluted in M63 media to OD600=0.01. Stock solutions (100 mM) of analog in DMSO were prepared weekly and stored at 4° C. Prior to initiating experiments in 96 well plates, the analog stock solution was serially diluted to make 10 mM or 1 mM working solutions in DMSO. A small volume of the appropriate working solution was transferred to a glass vial, diluted with DMSO to 30 μL, and then diluted to a final volume of 1.5 mL with pre-culture cell suspension with an OD600=0.01. The resultant cell suspension (200 μL) was transferred to a clear-bottom polystyrene 96 well plate (VWR), and incubated at 35° C. and 205 cpm for 13 h in an Epoch 2 microplate spectrophotometer (Biotek Instruments, Inc., Vermont). The growth curve in the presence of Ciprofloxacin was obtained in the same plate. […] MIC determinations were carried out using standard broth microdilution methods in 48 well plates and modified M63 media. Cells were incubated at 35° C.
This idea was tested with A. baumanni AB5075, a highly virulent isolate, which has been proposed as a model strain for the evaluation of pathogenesis and antimicrobial treatments.^66.

[2] = tested on: iron mobilization from BfrB in P. aeruginosa; experiment: Imaging of iron stored in BfrB and analysis of total iron levels; assay type: cell-based, Pseudomonas aeruginosa; details: analog 125 μM, M63 + 4 μM Fe
Experimental: The resultant cell suspensions (5 mL) were mixed with a small volume of a 10 mM working solution of analog 16 in DMSO to give a 125 μM solution and 2% DMSO, or simply 2% DMSO (control). The conical tubes were covered with a sterile air permeable membrane and the cultures incubated at 35° C. and 120 rpm for 6, 9, 12, 15, 18, 21 and 24 h. Prior to separating the cells by centrifugation (4,000 rpm, 15 min), a 100 μL aliquot was withdrawn from each conical tube and serially diluted for plating and enumerating viable cells. The separated pellet was washed with 5 mL of PBS and frozen at −20° C. for subsequent analysis. The corresponding cell free supernatants were used for iron analysis in the spent media, as described below. […]
To determine the total iron levels of cells treated with analog 16 or DMSO only (control), 5 mL cultures were grown in M63 media supplemented with 4 μM iron, as described above, and analyzed at 12, 15, 21, 24, and 28 h. […] Cell pellets were washed twice with 10 mL of PBS and the total levels of cellular iron were measured using a published protocol.^18, 48 In brief, cell pellets were mixed with 500 μL of freshly prepared digestion reagent (1:1 v/v 1.2 N HCl and 4.5% w/v KMnO4 in water), thoroughly mixed by vortexing, and incubated at 65° C. for 4 h. […]

## O=C1NC(=O)c2c(NCCCc3cccc(O)c3)cccc21 [Analog 16, 4-((3-(3-Hydroxyphenyl)propyl)amino)isoindoline-1,3-dione]
[1]
  IC50: 128 µM
[2]
  iron mobilization from BfrB (native PAGE stained with Ferene S): significant inhibition of iron mobilization from BfrB; also recorded: much slower (inhibited) mobilization of iron from BfrB
[2]; all time points
  viable cells, fold fewer than untreated control: approximately 2.5 fold
